What was measured:
[1] = test system: barley, winter; assay: Test D preemergence; assay type: in vivo, Hordeum vulgare; conditions: Preemergence, scale 0 to 100
In short: (§1)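 Scores of 0 (no effect) to 100 (complete control) come from visual comparison with untreated plants 14–21 days after spraying. Applications were made pre-emergence to silt loam or post-emergence to plants 2–18 cm tall.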

[2] = test system: barley, spring; assay: Test D preemergence; assay type: in vivo, Hordeum vulgare; conditions: Preemergence, scale 0 to 100
In short: as §1

[3] = test system: blackgrass; assay: Test D preemergence; assay type: in vivo, Alopecurus myosuroides; conditions: Preemergence, scale 0 to 100
In short: as §1

[4] = test system: oilseed rape; assay: Test D preemergence; assay type: in vivo, Brassica napus; conditions: Preemergence, scale 0 to 100
In short: as §1

[5] = test system: ryegrass, Italian; assay: Test D postemergence; assay type: in vivo, Lolium multiflorum; conditions: scale 0 to 100
In short: as §1

[6] = test system: chickweed; assay: Test D preemergence; assay type: in vivo, Stellaria media; conditions: Preemergence, scale 0 to 100
In short: as §1

[7] = test system: field poppy; assay: Test D preemergence; assay type: in vivo, Papaver rhoeas; conditions: Preemergence, scale 0 to 100
In short: as §1

[8] = test system: oilseed rape; assay: Test D postemergence; assay type: in vivo, Brassica napus; conditions: scale 0 to 100
In short: as §1

[9] = test system: chamomile; assay: Test D postemergence; assay type: in vivo, Matricaria inodora; conditions: scale 0 to 100
In short: as §1

[10] = test system: windgrass; assay: Test D preemergence; assay type: in vivo, Apera spica-venti; conditions: Preemergence, scale 0 to 100
In short: as §1

[11] = test system: lambsquarters; assay: Test D preemergence; assay type: in vivo, Chenopodium album; conditions: Preemergence, scale 0 to 100
In short: as §1

[12] = test system: mustard, wild; assay: Test D postemergence; assay type: in vivo, Sinapis arvensis; conditions: scale 0 to 100
In short: as §1

[13] = test system: wheat, winter; assay: Test D preemergence; assay type: in vivo, Triticum aestivum; conditions: Preemergence, scale 0 to 100
In short: as §1

[14] = test system: wheat, spring; assay: Test D preemergence; assay type: in vivo, Triticum aestivum; conditions: Preemergence, scale 0 to 100
In short: as §1

[15] = test system: galium; assay: Test D preemergence; assay type: in vivo, Galium aparine; conditions: Preemergence, scale 0 to 100
In short: as §1

[16] = test system: pigweed; assay: Test D preemergence; assay type: in vivo, Amaranthus retroflexus; conditions: Preemergence, scale 0 to 100
In short: as §1

[17] = test system: canarygrass; assay: Test D preemergence; assay type: in vivo, Phalaris minor; conditions: Preemergence, scale 0 to 100
In short: as §1

[18] = test system: ryegrass, Italian; assay: Test D preemergence; assay type: in vivo, Lolium multiflorum; conditions: Preemergence, scale 0 to 100
In short: as §1

[19] = test system: oat, wild; assay: Test D postemergence; assay type: in vivo, Avena fatua; conditions: scale 0 to 100
In short: as §1

[20] = test system: buckwheat, wild; assay: Test D preemergence; assay type: in vivo, Polygonum convolvulus; conditions: Preemergence, scale 0 to 100
In short: as §1

CCCc1cc(C(=O)NC(C)C)nn1Cc1cc(C(F)(F)F)nn1C [Compound 201]
60: Plant response rating, Canarygrass ([17]; 31 g ai/ha)
80: Plant response rating, Chickweed ([6]; 31 g ai/ha) | Plant response rating, Pigweed ([16]; 62 g ai/ha)
95: Plant response rating, Wheat, Winter ([13]; 250 g ai/ha)
15: Ryegrass, Italian plant response rating ([5]; Postemergence, 31 g ai/ha) | Ryegrass, Italian plant response rating ([5]; postemergence, 62 g ai/ha) | Plant response rating, Buckwheat, Wild ([20]; 31 g ai/ha)
20: Plant response rating, Barley, Spring ([2]; 62 g ai/ha) | Ryegrass, Italian plant response rating ([5]; Postemergence, 125 g ai/ha)
35: Plant response rating, Barley, Winter ([1]; 62 g ai/ha) | Plant response rating, Blackgrass ([3]; 31 g ai/ha) | Chamomile plant response rating ([9]; Postemergence, 31 g ai/ha) | Chamomile plant response rating ([9]; postemergence, 62 g ai/ha)
70: Oilseed Rape plant response rating ([8]; Postemergence, 250 g ai/ha) | Plant response rating, Wheat, Winter ([13]; 125 g ai/ha) | Oat, Wild plant response rating ([19]; Postemergence, 250 g ai/ha)
0: Plant response rating, Barley, Spring ([2]; 31 g ai/ha)
75: Plant response rating, Barley, Spring ([2]; 250 g ai/ha) | Mustard, Wild plant response rating ([12]; Postemergence, 31 g ai/ha) | Mustard, Wild plant response rating ([12]; postemergence, 62 g ai/ha) | Plant response rating, Wheat, Spring ([14]; 125 g ai/ha)
65: Plant response rating, Barley, Spring ([2]; 125 g ai/ha) | Chamomile plant response rating ([9]; Postemergence, 250 g ai/ha) | Plant response rating, Ryegrass, Italian ([18]; 62 g ai/ha)
25: Plant response rating, Barley, Winter ([1]; 31 g ai/ha) | Oat, Wild plant response rating ([19]; Postemergence, 31 g ai/ha) | Oat, Wild plant response rating ([19]; postemergence, 62 g ai/ha)
55: Chamomile plant response rating ([9]; Postemergence, 125 g ai/ha) | Plant response rating, Wheat, Spring ([14]; 62 g ai/ha)
85: Mustard, Wild plant response rating ([12]; Postemergence, 125 g ai/ha) | Plant response rating, Ryegrass, Italian ([18]; 125 g ai/ha)
50: Ryegrass, Italian plant response rating ([5]; Postemergence, 250 g ai/ha) | Oilseed Rape plant response rating ([8]; Postemergence, 125 g ai/ha) | Plant response rating, Galium ([15]; 62 g ai/ha) | Oat, Wild plant response rating ([19]; Postemergence, 125 g ai/ha)
90: Plant response rating, Blackgrass ([3]; 62 g ai/ha) | Plant response rating, Lambsquarters ([11]; 62 g ai/ha) | Mustard, Wild plant response rating ([12]; Postemergence, 250 g ai/ha)
40: Oilseed Rape plant response rating ([8]; Postemergence, 31 g ai/ha) | Oilseed Rape plant response rating ([8]; postemergence, 62 g ai/ha) | Plant response rating, Wheat, Winter ([13]; 62 g ai/ha)
45: Plant response rating, Barley, Winter ([1]; 125 g ai/ha)
100: Plant response rating, Barley, Winter ([1]; 250 g ai/ha) | Plant response rating, Blackgrass ([3]; 125 g ai/ha) | Plant response rating, Blackgrass ([3]; 250 g ai/ha) | Plant response rating, Oilseed Rape ([4]; 62 g ai/ha) | Plant response rating, Oilseed Rape ([4]; 125 g ai/ha) | Plant response rating, Oilseed Rape ([4]; 250 g ai/ha) | Plant response rating, Chickweed ([6]; 62 g ai/ha) | Plant response rating, Chickweed ([6]; 125 g ai/ha) | Plant response rating, Chickweed ([6]; 250 g ai/ha) | Plant response rating, Field Poppy ([7]; 62 g ai/ha) | Plant response rating, Field Poppy ([7]; 125 g ai/ha) | Plant response rating, Field Poppy ([7]; 250 g ai/ha) | Plant response rating, Windgrass ([10]; 62 g ai/ha) | Plant response rating, Windgrass ([10]; 125 g ai/ha) | Plant response rating, Windgrass ([10]; 250 g ai/ha) | Plant response rating, Lambsquarters ([11]; 125 g ai/ha) | Plant response rating, Lambsquarters ([11]; 250 g ai/ha) | Plant response rating, Wheat, Spring ([14]; 250 g ai/ha) | Plant response rating, Galium ([15]; 125 g ai/ha) | Plant response rating, Galium ([15]; 250 g ai/ha) | Plant response rating, Pigweed ([16]; 125 g ai/ha) | Plant response rating, Pigweed ([16]; 250 g ai/ha) | Plant response rating, Canarygrass ([17]; 62 g ai/ha) | Plant response rating, Canarygrass ([17]; 125 g ai/ha) | Plant response rating, Canarygrass ([17]; 250 g ai/ha) | Plant response rating, Ryegrass, Italian ([18]; 250 g ai/ha) | Plant response rating, Buckwheat, Wild ([20]; 62 g ai/ha) | Plant response rating, Buckwheat, Wild ([20]; 250 g ai/ha)

CCCc1cc(C(=O)NC2CC2)nn1Cc1cc(C(F)(F)F)nn1C [Compound 202]
75: Plant response rating, Blackgrass ([3]; 125 g ai/ha) | Plant response rating, Windgrass ([10]; 125 g ai/ha) | Plant response rating, Lambsquarters ([11]; 62 g ai/ha) | Mustard, Wild plant response rating ([12]; Postemergence, 250 g ai/ha) | Plant response rating, Canarygrass ([17]; 125 g ai/ha)
100: Plant response rating, Chickweed ([6]; 31 g ai/ha) | Plant response rating, Chickweed ([6]; 62 g ai/ha) | Plant response rating, Chickweed ([6]; 125 g ai/ha) | Plant response rating, Chickweed ([6]; 250 g ai/ha) | Plant response rating, Field Poppy ([7]; 62 g ai/ha) | Plant response rating, Field Poppy ([7]; 125 g ai/ha) | Plant response rating, Field Poppy ([7]; 250 g ai/ha) | Plant response rating, Windgrass ([10]; 250 g ai/ha) | Plant response rating, Lambsquarters ([11]; 125 g ai/ha) | Plant response rating, Lambsquarters ([11]; 250 g ai/ha) | Plant response rating, Galium ([15]; 250 g ai/ha) | Plant response rating, Pigweed ([16]; 62 g ai/ha) | Plant response rating, Pigweed ([16]; 125 g ai/ha) | Plant response rating, Pigweed ([16]; 250 g ai/ha) | Plant response rating, Buckwheat, Wild ([20]; 125 g ai/ha) | Plant response rating, Buckwheat, Wild ([20]; 250 g ai/ha)
85: Plant response rating, Canarygrass ([17]; 250 g ai/ha)
50: Oilseed Rape plant response rating ([8]; Postemergence, 125 g ai/ha)
90: Plant response rating, Oilseed Rape ([4]; 250 g ai/ha)
80: Plant response rating, Blackgrass ([3]; 250 g ai/ha) | Plant response rating, Ryegrass, Italian ([18]; 250 g ai/ha)
30: Oat, Wild plant response rating ([19]; Postemergence, 125 g ai/ha)
60: Oilseed Rape plant response rating ([8]; Postemergence, 250 g ai/ha) | Chamomile plant response rating ([9]; Postemergence, 125 g ai/ha) | Plant response rating, Wheat, Winter ([13]; 250 g ai/ha) | Plant response rating, Buckwheat, Wild ([20]; 62 g ai/ha)
5: Plant response rating, Blackgrass ([3]; 31 g ai/ha) | Plant response rating, Wheat, Winter ([13]; 62 g ai/ha)
10: Ryegrass, Italian plant response rating ([5]; Postemergence, 31 g ai/ha) | Ryegrass, Italian plant response rating ([5]; Postemergence, 125 g ai/ha) | Ryegrass, Italian plant response rating ([5]; postemergence, 62 g ai/ha) | Plant response rating, Wheat, Spring ([14]; 125 g ai/ha) | Plant response rating, Canarygrass ([17]; 31 g ai/ha)
65: Plant response rating, Barley, Spring ([2]; 250 g ai/ha) | Plant response rating, Oilseed Rape ([4]; 62 g ai/ha) | Chamomile plant response rating ([9]; Postemergence, 250 g ai/ha)
55: Plant response rating, Barley, Spring ([2]; 125 g ai/ha) | Chamomile plant response rating ([9]; Postemergence, 31 g ai/ha) | Chamomile plant response rating ([9]; postemergence, 62 g ai/ha) | Plant response rating, Windgrass ([10]; 62 g ai/ha)
15: Ryegrass, Italian plant response rating ([5]; Postemergence, 250 g ai/ha)
35: Plant response rating, Blackgrass ([3]; 62 g ai/ha) | Plant response rating, Galium ([15]; 62 g ai/ha) | Plant response rating, Buckwheat, Wild ([20]; 31 g ai/ha)
70: Plant response rating, Oilseed Rape ([4]; 125 g ai/ha) | Mustard, Wild plant response rating ([12]; Postemergence, 31 g ai/ha) | Mustard, Wild plant response rating ([12]; Postemergence, 125 g ai/ha) | Mustard, Wild plant response rating ([12]; postemergence, 62 g ai/ha) | Plant response rating, Galium ([15]; 125 g ai/ha)
40: Oilseed Rape plant response rating ([8]; Postemergence, 31 g ai/ha) | Oilseed Rape plant response rating ([8]; postemergence, 62 g ai/ha) | Plant response rating, Canarygrass ([17]; 62 g ai/ha) | Plant response rating, Ryegrass, Italian ([18]; 125 g ai/ha) | Oat, Wild plant response rating ([19]; Postemergence, 250 g ai/ha)
25: Plant response rating, Barley, Winter ([1]; 125 g ai/ha) | Plant response rating, Wheat, Winter ([13]; 125 g ai/ha) | Plant response rating, Wheat, Spring ([14]; 250 g ai/ha) | Oat, Wild plant response rating ([19]; Postemergence, 31 g ai/ha) | Oat, Wild plant response rating ([19]; postemergence, 62 g ai/ha)
45: Plant response rating, Barley, Winter ([1]; 250 g ai/ha)
0: Plant response rating, Barley, Winter ([1]; 31 g ai/ha) | Plant response rating, Barley, Winter ([1]; 62 g ai/ha) | Plant response rating, Barley, Spring ([2]; 31 g ai/ha) | Plant response rating, Barley, Spring ([2]; 62 g ai/ha) | Plant response rating, Wheat, Spring ([14]; 62 g ai/ha) | Plant response rating, Ryegrass, Italian ([18]; 62 g ai/ha)

Source: patent US20150105252A1, “SUBSTITUTED PYRAZOLES AS HERBICIDES” (E I DU PONT DE NEMOURS AND COMPANY, priority 2013, published 2015)
